From patent US5342970A, “Hydrosoluble coumarin derivatives, their preparation and their use as an enzyme substrate or for the preparation of such substrates” (priority 1991, dated 1994)
In brackets after ≈: the same amount, converted by molar mass. Several values for one entry are separate records, joined by “and”; a condition that tells them apart may be missing. Equal entries are not always repeated. Structures can show the parent of a compound that is named as a salt. Where two headings read alike, the source gives them in different places. Each block holds one molecule with its values, some of them ahead of it.

Assays:
Pig pancreas trypsin [1] = target: T1, Pig pancreas trypsin (Sus scrofa, UniProt P00761); conditions: for comparison purposes; cited from earlier work
T1 sequence (P00761 9-231): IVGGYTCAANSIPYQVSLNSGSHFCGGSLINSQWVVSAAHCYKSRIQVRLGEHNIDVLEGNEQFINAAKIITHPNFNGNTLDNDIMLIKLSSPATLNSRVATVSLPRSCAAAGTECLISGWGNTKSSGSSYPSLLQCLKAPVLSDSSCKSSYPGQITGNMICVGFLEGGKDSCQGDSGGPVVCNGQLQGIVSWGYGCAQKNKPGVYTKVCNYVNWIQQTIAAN

[2] = Solubility in water and in water-ethanol mixtures; type: physicochemical
[3] = Excitation and emission spectra of substrates and hydrolysis products (Table 1); type: physicochemical; conditions: 10^-7 M in Tris buffer, pH 7.8
[4] = Excitation and emission spectra of ATC derivatives (Table 4); type: physicochemical; conditions: 10^-7 M, Z-Arg-ATC in 50 mM Tris pH 8, 10 mM CaCl2
Protocol: The excitation and emission spectra of ATC and Z-Arg-ATC were plotted on the basis of 10^-7 M solutions in the 50 mM Tris buffer at pH 8 containing 10 mM of CaCl2. The maxima obtained are indicated in table 4 with the corresponding maxima of Leu-ATC.

Pig pancreas trypsin [5] = target: T1, Pig pancreas trypsin; test: Hydrolysis of substrate by trypsin, Michaelis kinetics; type: biochemical
Protocol: Crystalline Z-Arg-ATC hydrochloride (Seratec): 10^-3 M solution in Tris buffer, pH 8.0+CACl2, 10 mM.
Pig pancreas trypsin (SIGMA T0134): 10^-3 M solution in Tris buffer, pH 8.0+CACl2, 10 mM.
Tris buffer: solution A: 0.2M Tris, i.e. 24.23 g/l+CaCl2, 40 mM, i.e. 5.88 g/l; solution B: 0.1M HCl.
This buffer is prepared by mixing 250 ml of solution A with 268 ml of solution B and by topping up to 1 liter with water.
Acetate buffer: solution A: 0.02M acetic acid; solution B: 0.02M sodium acetate.
This buffer is prepared by mixing volume by volume solutions A and B to obtain a buffer at pH 4.75.
Aqueous 1.17N perchloric acid solution (1/10 dilution of pure acid).
The following substrate concentration range was prepared in tubes: 0-0.2-0.5-1-2-5-10×10^-4 M (final concentration).
To each tube was added a concentration of 6.67 μg/ml of trypsin, everything being dissolved in the Tris buffer pH 8.0+CaCl2, 10 mM and at ambient temperature. The enzyme is added at time 0. After 2 minutes, 250 μl are removed from each tube and poured into tubes containing 250 μl of 1.17N perchloric acid and 500 μl of water. The tubes are centrifuged and then the solution is diluted to 1/250 in the acetate buffer. The same operation is repeated at 17 min. The fluorescence intensity is measured at 380/490nm. The difference of the intensities at 17 and 2 min constitutes the signal.
The corresponding ATC concentration is calculated compared with a calibration range from 5×10^-9 to 2×10^-7 M.
This was followed by the determination of Km, Vm, kcat and the ratio kcat/Km. The results obtained are given in table 6, which also gives for comparison purposes the values obtained with Z-L-Arg-AMC and Bz DL Arg-AMC and Bz -L-Arg-AMC.

Pig pancreas trypsin [6] = target: T1, Pig pancreas trypsin; test: Determination of trypsin, analytical characteristics; type: biochemical
Protocol: Six calibration ranges containing a final enzyme concentration of 0-0.42-0.84-1.67-3.33-6.67 μg/ml were prepared. Each calibration curve was determined by linear regression. The mean standard deviation is 2.45×10^-3 ±0.003×10^-3 for the gradient and 4.80×10^-3 ±2.53×10^-3 for the intercept The linearity test is significant at the 5% threshold (W=0.245). The quantification limit, calculated by the ratio 3σb /a is 0.05 μg/ml. The repeatability, evaluated by the variation coefficient, is 9.4% at 0.42 μg/ml, 5.9% at 0.84 μg/ml and 1.3% at 6.67 μg/ml.

Leucine aminopeptidase = conditions: known substrates, for comparison; medium with organic solvent; cited from earlier work
[7] = water, read-out: Solubility in water
[8] = enzyme 0-6.67 μg/ml, linear regression

SMILES: Cc1cc(=O)oc2cc(NC(=O)[C@H](CCCNC(=N)N)NC(=O)c3ccccc3)ccc12 [Bz--L--Arg--AMC]
Km (Pig pancreas trypsin [1]): 110 µM | kcat (Pig pancreas trypsin [1]): 0.42 s⁻¹ | kcat/Km (Pig pancreas trypsin [1]): 3800 M⁻¹ s⁻¹

solubility ([2]; water-ethanol 90:10, organic solvent or mixture, read-out: Solubility in the water-ethanol mixture (90:10)): 7000 µg/mL (≈ 23.8 mM) | solubility [2, 7]: 1000 µg/mL (≈ 3.4 mM)
SMILES: COCCOCCOCc1cc(=O)oc2cc(O)ccc12 [Compound 10, 7-hydroxy-4-(2',5',8'-trioxanonyl)coumarin]

solubility ([2]; ethanol:water 30:70, organic solvent or mixture, read-out: Solubility in ethanol:water mixture (30:70)): 3000 µg/mL (≈ 8.03 mM) | solubility [2, 7]: 200 µg/mL (≈ 0.536 mM)
SMILES: COCCOCCOCc1cc(=O)oc2c3c4c(cc12)CCCN4CCC3 [Compound 7, 2,3,6,7-tetrahydro-9-(2',5',8'-trioxanonyl)-1H, 5H, 11H-(1)-benzopyrano-(6,7,8-ij)-quinolizinone-11]

SMILES: N=C(N)NCCC[C@H](NC(=O)CNC(=O)CN)C(=O)Nc1ccc2c(CS(=O)(=O)O)cc(=O)oc2c1 [GlyGly Arg AMCS, reference compound]
Maximum excitation wavelength, substrate [3]: 336 nm | Maximum fluorescence wavelength, substrate [3]: 409 nm

SMILES: Cc1cc(=O)oc2cc(NC(=O)[C@H](CCCNC(=N)N)NC(=O)OCc3ccccc3)ccc12 [Z--L--Arg--AMC]
Km (Pig pancreas trypsin [1]): 200 µM | kcat (Pig pancreas trypsin [1]): 0.89 s⁻¹ | kcat/Km (Pig pancreas trypsin [1]): 4500 M⁻¹ s⁻¹

SMILES: Cc1cc(=O)oc2cc(NC(=O)C(CCCNC(=N)N)NC(=O)c3ccccc3)ccc12 (racemic) [Bz--DL--Arg--AMC]
Km (Pig pancreas trypsin [1]): 250 µM | kcat (Pig pancreas trypsin [1]): 0.20 s⁻¹ | kcat/Km (Pig pancreas trypsin [1]): 800 M⁻¹ s⁻¹

excitation maximum, substrate [4]: 355 nm | fluorescence maximum, substrate ([4]; hydrochloride): 415 nm and 450 nm | Vm (Pig pancreas trypsin [5]; Tris buffer pH 8.0 + CaCl2 10 mM, ambient temperature): 474 nmole/min/mg Ez | ATC hydrolysis solution (Pig pancreas trypsin [5]; substrate 0.2×10^-4 M): 0.224 µM/min | ATC working solution (Pig pancreas trypsin [5]; substrate 0.2×10^-4 M): 3.36 nM | IF(17)-IF(2) (Pig pancreas trypsin [5]; substrate 0.2×10^-4 M): 3.7 | ATC hydrolysis solution (Pig pancreas trypsin [5]; substrate 0.5×10^-4 M): 0.467 µM/min | ATC working solution (Pig pancreas trypsin [5]; substrate 0.5×10^-4 M): 7.00 nM | IF(17)-IF(2) (Pig pancreas trypsin [5]; substrate 0.5×10^-4 M): 7.7 | ATC hydrolysis solution (Pig pancreas trypsin [5]; substrate 1×10^-4 M): 1.03 µM/min | ATC working solution (Pig pancreas trypsin [5]; substrate 1×10^-4 M): 15.4 nM | IF(17)-IF(2) (Pig pancreas trypsin [5]; substrate 1×10^-4 M): 16.9 | ATC hydrolysis solution (Pig pancreas trypsin [5]; substrate 2×10^-4 M): 1.81 µM/min | ATC working solution (Pig pancreas trypsin [5]; substrate 2×10^-4 M): 27.1 nM | IF(17)-IF(2) (Pig pancreas trypsin [5]; substrate 2×10^-4 M): 29.8 | ATC hydrolysis solution (Pig pancreas trypsin [5]; substrate 5×10^-4 M): 2.36 µM/min | ATC working solution (Pig pancreas trypsin [5]; substrate 5×10^-4 M): 35.4 nM | IF(17)-IF(2) (Pig pancreas trypsin [5]; substrate 5×10^-4 M): 38.9 | ATC hydrolysis solution (Pig pancreas trypsin [5]; substrate 10×10^-4 M): 2.57 µM/min | ATC working solution (Pig pancreas trypsin [5]; substrate 10×10^-4 M): 38.6 nM | IF(17)-IF(2) (Pig pancreas trypsin [5]; substrate 10×10^-4 M): 42.4 | affinity and activity compared with Bz-DL-Arg-AMC (Pig pancreas trypsin [5]; words): comparable with Bz-DL-Arg-AMC | repeatability (variation coefficient) (Pig pancreas trypsin [6]; at 0.42 μg/ml enzyme): 9.4% | repeatability (variation coefficient) (Pig pancreas trypsin [6]; at 0.84 μg/ml enzyme): 5.9% | repeatability (variation coefficient) (Pig pancreas trypsin [6]; at 6.67 μg/ml enzyme): 1.3% | gradient of calibration curve (Pig pancreas trypsin [6]; [8]): 2.45×10^-3 ±0.003×10^-3 | intercept of calibration curve (Pig pancreas trypsin [6]; [8]): 4.80×10^-3 ±2.53×10^-3 | quantification limit (Pig pancreas trypsin [6]; trypsin, ratio 3σb/a): 0.05 µg/mL
SMILES: COCCOCCOCc1cc(=O)oc2cc(NC(=O)[C@H](CCCNC(=N)N)NC(=O)OCc3ccccc3)ccc12 [Compound 14, N-carbobenzyloxy-L-arginyl-4-(2',5',8'-trioxanonyl)-7-coumarinylamide hydrochloride]
detection limit for trypsin compared with substrates derived from AMC (Pig pancreas trypsin [6]; words): of the same order of magnitude as that obtained with substrates derived from AMC

SMILES: CC(C)C[C@H](N)C(=O)Nc1ccc2ccccc2c1 [Leu-βnaphthylamide]
Km (Leucine aminopeptidase): 150 µM | Vm (Leucine aminopeptidase): 5.5 μmole/mg Ez/min
